Consider five compounds from patent US8110217B2, “Sphingomyelin liposomes for the treatment of hyperactive bladder disorders” (priority 2001, dated 2012).

The assay has as its system chemically induced bladder hyperactivity. Description: Cystometrogram (CMG): liposomes of various lipids infused in the presence of KCl after protamine sulfate (Examples 1-4). Type of assay: in vivo, female Sprague-Dawley rats. From the text: Bladder reflex activity in thirty-four (34) female Sprague-Dawley rats (200-250 g) was studied by cystometry performed under anesthesia with urethane (1.2 g/kg) administered by subcutaneous injection. Body temperature was maintained in the physiologic range using a heating lamp. A transurethral bladder catheter (PE-50) connected by a three-way stopcock to a pressure transducer and to a syringe pump was used to record intravesical pressure and to infuse solutions into the bladder. A control cystometrogram (CMG) was performed by slowly filling the bladder with saline at a rate of 0.04 ml/min to elicit repetitive voiding. The bladder contraction frequency of the reflex bladder contractions were recorded. After performing control CMGs with saline infusion for 3 hours, protamine sulfate (PS) (Sigma Chemical; 10 mg/ml) was infused at a rate of 0.04 ml/min for 1 hour to increase epithelial permeability followed by infusion of the irritant KCl (500 mM) for 1 hour. Subsequently, liposomes made from lipids of various compositions then were infused in the presence of a high concentration of KCl for 2 hours.
The effect of charge on the lipid headgroup in reducing bladder activity in three animal groups (n=5) was determined. Neutrally charged liposomes prepared with L-α-PC (a zwitterionic lipid egg PC) were compared against liposomes having either a positively or negatively charged polar headgroup, namely, 1,2-dioleoyl-3-trimethylammonium-propane (DOTAP) and 1-α-phosphatidylserine (POPS), respectively.
Liposomes were prepared as described by Kirby and Gregoriadis (Kirby, C. J. and Gregoriadia, G., “A simple procedure for preparing liposomes capable of high encapsulation efficiency under mild conditions,” Liposome Technology, G. Gregnoriadis, Ed., C.R.C. Press, Inc., Boca Raton, Fla., 1984, Vol. 1, p. 20, 1984). Briefly, liposomes were constructed as a 2:1 molar ratio of L-α-phosphatidylcholine and cholesterol (Sigma Chemical Co., St. Louis, Mo.) to a final lipid concentration of 1-2 mg/ml in saline. Lipids in chloroform were dried down together in the proper ratio under nitrogen. The residues were reconstituted as liposomes in saline or 500 mM KCl by intense sonication. This lipid composition produced liposomes with no net charge.
Statistical analyses were performed using Student's t test for paired or unpaired data, where applicable. A P-value less than 0.05 was considered significant. All data were expressed as means±S.E. (standard error).
Neutrally charged liposomes prepared with sphingomyelin were compared against liposomes prepared from dihydrosphingomyelin and two pure synthetic lipids: 1,2-distearoyl-sn-glycero-3-phosphocholine (DSPC) and 1,-oleoyl-2-stearoyl-sn-glycero-3-phosphocholine (OSPC).
The methodology of this investigation is the same as described above in Example 1 with the exception that the preparation of liposomes was modified from Example 1. Briefly, liposomes were constructed as a 2:1 molar ratio of sphingomyelin and cholesterol (Sigma Chemical Co., St. Louis, Mo.) to a final lipid concentration of 1-2 mg/ml in saline. Lipids in chloroform were dried down together in the proper ratio under nitrogen. The residues were reconstituted as liposomes in saline or 500 mM KCl by intense sonication. This lipid composition produced sphingomyelin liposomes with no net charge.
Sphingomyelin devoid of its phosphorylcholine head group generates the molecule ceramide, a well known lipid second messenger which mediates a wide range of cellular responses to external stimuli, and also is used for the biosynthesis of sphingomyelin and glycosphingolipids. Because ceramide cannot form stable liposomes by itself, its effect on bladder hyperactivity was tested by including it at 1 mol % in an inert lipid, namely, 1,2-distearoyl-sn-glycero-3-phosphocholine (DSPC).
The methodology of this investigation is the same as described above in Example 1 with the exception that the preparation of liposomes was modified from Example 1. […]

The mark [1] stands for this setting: included at 1 mol % in DSPC liposomes.

In the case of “1-alkyl-2-acetoyl-sn-glycero-3-phosphocholine [PAF]”, the “bladder reflex activity” value (instilled alone or included with DSPC liposomes at 1-5 mol %) was “aggravated the bladder reflex activity”. Turning to `CCCCCCCCCCCCC/C=C/[C@@H](O)[C@@H](N)COP(=O)(O)O` [sphingosine 1-phosphate], the “effect on efficacy of DSPC liposomes in reducing bladder contraction frequency” value reads like this: under setting [1], “did not show a similar beneficial effect”; (included in DSPC at 1-5 mol % (data not shown)) “equally effective as ceramide and sphingosine”. Regarding `CCCCCCCCCCCCC/C=C/[C@@H](O)[C@@H](N)CO` [sphingosine], the “effect on efficacy of DSPC liposomes in reducing bladder contraction frequency” value under setting [1] was “had a similar effect”. As to ceramide, under setting [1], the “effect on efficacy of DSPC liposomes in reducing bladder contraction frequency” value is listed as “significantly increased the efficacy of DSPC”.

Turning to cerebroside, the “effect on efficacy of DSPC liposomes in reducing bladder contraction frequency” value (DSPC/cerebroside and cholesterol liposomes) is “significantly increased the efficacy of DSPC”.
